Test results: PubChem BioAssay (NCI)
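The compound was tested at five concentrations on cells cultured in 96-well plates, with a 48-hour exposure period. Here, GI50 denotes the concentration required for 50% inhibition of growth. Definition used: TGI = concentration required for complete inhibition of growth.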

Assays:
Test in all cases: NCI-60 cell line screen, 48 h
UACC-62 melanoma = tested on: UACC-62 melanoma
NCI-H23 lung = tested on: NCI-H23 lung
MALME-3M melanoma = tested on: MALME-3M melanoma
KM12 colon = tested on: KM12 colon
NCI-H522 lung = tested on: NCI-H522 lung
TK-10 renal = tested on: TK-10 renal
IGROV1 ovarian = tested on: IGROV1 ovarian
SR leukemia = tested on: SR leukemia
HS 578T breast = tested on: HS 578T breast
A549 NSCLC = tested on: A549 NSCLC
LOX IMVI melanoma = tested on: LOX IMVI melanoma
NCI-H226 lung = tested on: NCI-H226 lung
SK-MEL-2 melanoma = tested on: SK-MEL-2 melanoma
SN12C renal = tested on: SN12C renal
T-47D breast = tested on: T-47D breast
HCC-2998 colon = tested on: HCC-2998 colon
MDA-MB-468 breast = tested on: MDA-MB-468 breast
UACC-257 melanoma = tested on: UACC-257 melanoma
OVCAR-4 ovarian = tested on: OVCAR-4 ovarian
U251 CNS = tested on: U251 CNS
HT29 colon = tested on: HT29 colon
UO-31 renal = tested on: UO-31 renal
SNB-75 CNS = tested on: SNB-75 CNS
RPMI-8226 leukemia = tested on: RPMI-8226 leukemia
SNB-19 CNS = tested on: SNB-19 CNS
SK-MEL-5 melanoma = tested on: SK-MEL-5 melanoma
NCI-H460 lung = tested on: NCI-H460 lung
CCRF-CEM leukemia = tested on: CCRF-CEM leukemia
SW-620 colon = tested on: SW-620 colon
HOP-62 NSCLC = tested on: HOP-62 NSCLC
M14 melanoma = tested on: M14 melanoma
MCF7 breast = tested on: MCF7 breast
SF-268 CNS = tested on: SF-268 CNS
ACHN renal = tested on: ACHN renal
HCT-15 colon = tested on: HCT-15 colon
EKVX NSCLC = tested on: EKVX NSCLC
CAKI-1 renal = tested on: CAKI-1 renal
A498 renal = tested on: A498 renal
786-0 renal = tested on: 786-0 renal
SF-295 CNS = tested on: SF-295 CNS
NCI/ADR-RES ovarian = tested on: NCI/ADR-RES ovarian
K-562 leukemia = tested on: K-562 leukemia
MDA-MB-231 breast = tested on: MDA-MB-231 breast
MOLT-4 leukemia = tested on: MOLT-4 leukemia
COLO 205 colon = tested on: COLO 205 colon
BT-549 breast = tested on: BT-549 breast
OVCAR-5 ovarian = tested on: OVCAR-5 ovarian
DU-145 prostate = tested on: DU-145 prostate
SF-539 CNS = tested on: SF-539 CNS
HL-60(TB) leukemia = tested on: HL-60(TB) leukemia
OVCAR-3 ovarian = tested on: OVCAR-3 ovarian
OVCAR-8 ovarian = tested on: OVCAR-8 ovarian
RXF 393 renal = tested on: RXF 393 renal
HOP-92 NSCLC = tested on: HOP-92 NSCLC
HCT-116 colon = tested on: HCT-116 colon
PC-3 prostate = tested on: PC-3 prostate
MDA-MB-435 = tested on: MDA-MB-435
SK-OV-3 ovarian = tested on: SK-OV-3 ovarian
SK-MEL-28 melanoma = tested on: SK-MEL-28 melanoma

## O=C1NC(=NC23CC4CC(CC(C4)C2)C3)N/C1=C\c1ccc2ncoc2c1
UACC-62 melanoma
  GI50: 0.347 µM
  TGI: 1.39 µM
NCI-H23 lung
  GI50: 0.217 µM
  TGI: 1.51 µM
MALME-3M melanoma
  GI50: 0.952 µM
  TGI: 3.71 µM
KM12 colon
  GI50: 0.342 µM
  TGI: > 76 µM
NCI-H522 lung
  GI50: 0.23 µM
  TGI: 5.63 µM
TK-10 renal
  GI50: 0.737 µM
  TGI: > 100 µM
IGROV1 ovarian
  GI50: 0.43 µM
  TGI: > 44.8 µM
SR leukemia
  GI50: 0.0451 µM
  TGI: 2.48 µM
HS 578T breast
  GI50: 0.412 µM
  TGI: 4.2 µM
A549 NSCLC
  GI50: 0.283 µM
  TGI: > 100 µM
LOX IMVI melanoma
  GI50: 0.239 µM
  TGI: > 100 µM
NCI-H226 lung
  GI50: 0.475 µM
  TGI: > 100 µM
SK-MEL-2 melanoma
  GI50: 0.5 µM
  TGI: 1.32 µM
SN12C renal
  GI50: 0.254 µM
  TGI: > 100 µM
T-47D breast
  GI50: 0.427 µM
  TGI: > 100 µM
HCC-2998 colon
  GI50: 0.588 µM
  TGI: 7.53 µM
MDA-MB-468 breast
  GI50: 0.169 µM
  TGI: 0.548 µM
UACC-257 melanoma
  GI50: 0.863 µM
  TGI: > 34.4 µM
OVCAR-4 ovarian
  GI50: 0.902 µM
  TGI: > 43.3 µM
U251 CNS
  GI50: 0.303 µM
  TGI: > 100 µM
HT29 colon
  GI50: 1.52 µM
  TGI: > 100 µM
UO-31 renal
  GI50: 0.358 µM
SNB-75 CNS
  GI50: 0.28 µM
  TGI: 1.4 µM
RPMI-8226 leukemia
  GI50: 0.279 µM
  TGI: 28.5 µM
SNB-19 CNS
  GI50: 0.319 µM
  TGI: > 100 µM
SK-MEL-5 melanoma
  GI50: 0.144 µM
  TGI: 5.65 µM
NCI-H460 lung
  GI50: 0.385 µM
  TGI: > 55.5 µM
CCRF-CEM leukemia
  GI50: 0.267 µM
SW-620 colon
  GI50: 0.318 µM
  TGI: > 100 µM
HOP-62 NSCLC
  GI50: 0.413 µM
  TGI: > 100 µM
M14 melanoma
  GI50: 0.325 µM
  TGI: > 100 µM
MCF7 breast
  GI50: 0.324 µM
  TGI: > 100 µM
SF-268 CNS
  GI50: 0.412 µM
  TGI: 12.8 µM
ACHN renal
  GI50: 0.21 µM
  TGI: 5.2 µM
HCT-15 colon
  GI50: 0.24 µM
  TGI: > 100 µM
EKVX NSCLC
  GI50: 0.469 µM
  TGI: 4.56 µM
CAKI-1 renal
  GI50: 0.391 µM
  TGI: > 100 µM
A498 renal
  GI50: 0.312 µM
  TGI: 0.919 µM
786-0 renal
  GI50: 0.434 µM
  TGI: > 100 µM
SF-295 CNS
  GI50: 0.487 µM
  TGI: > 100 µM
NCI/ADR-RES ovarian
  GI50: 0.253 µM
  TGI: 1.21 µM
K-562 leukemia
  GI50: 0.589 µM
  TGI: > 100 µM
MDA-MB-231 breast
  GI50: 0.369 µM
  TGI: 8.05 µM
MOLT-4 leukemia
  GI50: 0.281 µM
  TGI: > 100 µM
COLO 205 colon
  GI50: 0.405 µM
  TGI: 5.91 µM
BT-549 breast
  GI50: 0.16 µM
  TGI: 1.4 µM
OVCAR-5 ovarian
  GI50: 0.322 µM
  TGI: > 100 µM
DU-145 prostate
  GI50: 0.315 µM
  TGI: > 100 µM
SF-539 CNS
  GI50: 0.103 µM
  TGI: 0.474 µM
HL-60(TB) leukemia
  GI50: 0.308 µM
  TGI: 2.29 µM
OVCAR-3 ovarian
  GI50: 0.243 µM
  TGI: > 84.3 µM
OVCAR-8 ovarian
  GI50: 0.293 µM
  TGI: > 100 µM
RXF 393 renal
  GI50: 0.215 µM
  TGI: 0.477 µM
HOP-92 NSCLC
  GI50: 0.511 µM
  TGI: > 91.7 µM
HCT-116 colon
  GI50: 0.0993 µM
  TGI: > 100 µM
PC-3 prostate
  GI50: 0.338 µM
  TGI: > 100 µM
MDA-MB-435
  GI50: 0.613 µM
  TGI: > 100 µM
SK-OV-3 ovarian
  GI50: 4.04 µM
  TGI: > 100 µM
SK-MEL-28 melanoma
  GI50: 0.333 µM
  TGI: 1.83 µM

## O=C(Nc1ccc(Cl)c([N+](=O)[O-])c1)Nc1ccc(Cl)c([N+](=O)[O-])c1
UACC-62 melanoma
  GI50: 2.74 µM
  TGI: 10.6 µM
NCI-H23 lung
  GI50: 2.36 µM
  TGI: 6.35 µM
MALME-3M melanoma
  GI50: 3.02 µM
  TGI: 11.8 µM
KM12 colon
  GI50: 3.49 µM
  TGI: 12.6 µM
NCI-H522 lung
  GI50: 2.34 µM
  TGI: 5.81 µM
TK-10 renal
  GI50: 4.31 µM
  TGI: 16.6 µM
IGROV1 ovarian
  GI50: 3.02 µM
  TGI: 9.14 µM
SR leukemia
  GI50: 3.57 µM
  TGI: 20.3 µM
HS 578T breast
  GI50: 5.46 µM
  TGI: 31.3 µM
A549 NSCLC
  GI50: 4.29 µM
  TGI: 16.9 µM
LOX IMVI melanoma
  GI50: 3.13 µM
  TGI: 9.64 µM
NCI-H226 lung
  GI50: 2.92 µM
  TGI: 10.1 µM
SK-MEL-2 melanoma
  GI50: 2.9 µM
  TGI: 9.11 µM
SN12C renal
  GI50: 2.92 µM
  TGI: 9.19 µM
T-47D breast
  GI50: 2.2 µM
  TGI: 9.1 µM
HCC-2998 colon
  GI50: 3.32 µM
  TGI: 11.9 µM
MDA-MB-468 breast
  GI50: 2.2 µM
  TGI: 6.48 µM
UACC-257 melanoma
  GI50: 4.81 µM
  TGI: 17.2 µM
OVCAR-4 ovarian
  GI50: 2.95 µM
  TGI: 11.3 µM
U251 CNS
  GI50: 3.02 µM
  TGI: 12.2 µM
HT29 colon
  GI50: 3.34 µM
  TGI: 13.3 µM
UO-31 renal
  GI50: 2.82 µM
  TGI: 10.1 µM
SNB-75 CNS
  GI50: 3.82 µM
  TGI: 19.5 µM
RPMI-8226 leukemia
  GI50: 2.27 µM
  TGI: 6.32 µM
SNB-19 CNS
  GI50: 2.68 µM
  TGI: 10.5 µM
SK-MEL-5 melanoma
  GI50: 2.94 µM
  TGI: 10.5 µM
NCI-H460 lung
  GI50: 3.22 µM
  TGI: 10.6 µM
CCRF-CEM leukemia
  GI50: 2.95 µM
  TGI: 11.3 µM
SW-620 colon
  GI50: 3.43 µM
  TGI: 13 µM
HOP-62 NSCLC
  GI50: 4.63 µM
  TGI: 17.2 µM
M14 melanoma
  GI50: 4.04 µM
  TGI: 15 µM
MCF7 breast
  GI50: 2.31 µM
  TGI: 7.43 µM
SF-268 CNS
  GI50: 3.87 µM
  TGI: 15.8 µM
ACHN renal
  GI50: 2.69 µM
  TGI: 7.44 µM
HCT-15 colon
  GI50: 2.83 µM
  TGI: 10.9 µM
EKVX NSCLC
  GI50: 3.56 µM
  TGI: 13.1 µM
CAKI-1 renal
  GI50: 2.98 µM
  TGI: 10.5 µM
A498 renal
  GI50: 3.33 µM
  TGI: 10.8 µM
786-0 renal
  GI50: 2.91 µM
  TGI: 11.9 µM
SF-295 CNS
  GI50: 2.46 µM
  TGI: 7.83 µM
NCI/ADR-RES ovarian
  GI50: 3.2 µM
  TGI: 11.2 µM
K-562 leukemia
  GI50: 2.8 µM
  TGI: 14.1 µM
MDA-MB-231 breast
  GI50: 3.05 µM
  TGI: 8.99 µM
MOLT-4 leukemia
  GI50: 3.12 µM
  TGI: 14.6 µM
COLO 205 colon
  GI50: 2.69 µM
  TGI: 6.97 µM
BT-549 breast
  GI50: 2.79 µM
  TGI: 9.94 µM
OVCAR-5 ovarian
  GI50: 7.12 µM
  TGI: 20.7 µM
DU-145 prostate
  GI50: 3.66 µM
  TGI: 13.8 µM
SF-539 CNS
  GI50: 4.88 µM
  TGI: 17.3 µM
HL-60(TB) leukemia
  GI50: 2.72 µM
  TGI: 7.11 µM
OVCAR-3 ovarian
  GI50: 2.6 µM
  TGI: 7.91 µM
OVCAR-8 ovarian
  GI50: 4.06 µM
  TGI: 14.7 µM
RXF 393 renal
  GI50: 11.3 µM
  TGI: 24.8 µM
HOP-92 NSCLC
  GI50: 2.28 µM
  TGI: 6.53 µM
HCT-116 colon
  GI50: 3.19 µM
  TGI: 9.34 µM
PC-3 prostate
  GI50: 2.83 µM
  TGI: 10.9 µM
MDA-MB-435
  GI50: 3.71 µM
  TGI: 12.8 µM
SK-OV-3 ovarian
  GI50: 4.04 µM
  TGI: 15.5 µM
SK-MEL-28 melanoma
  GI50: 3.78 µM
  TGI: 14.4 µM
